How the values were obtained:
[1] = test system: AMP activated protein kinase (AMPK); assay: AMPK phosphorylation by Western blot in C2C12 myotubes; assay type: cell-based, Mouse; conditions: whatever the dose
Method: (§1) Mouse myoblasts of the C2C12 cell line (ATCC) were seeded at a plating density of 7000 cells/cm2 in 6-well plates. They were grown in DMEM high glucose (4.5g/l) supplemented with gentamycin (50 µg/mL), amphotericin (50 µg/mL), and fetal calf serum (10%). Terminal differentiation was induced at cell confluence by lowering the medium serum concentration (0.5%).
(§2) When indicated, FuFA-F2 was added to the culture medium at the indicated concentration. For the differentiation studies, FuFA-F2 was added at the confluence at the same time as the change in media condition. Three doses of FuFA-F2 were studied at a final concentration of 1, 10, or 50 µM. Human insulin was used at a concentration of 100 nM.
Protein levels were assessed by Western blotting. Total proteins were measured using the Bio-Rad protein assay (Hercules, CA, USA) according to the manufacturer's instructions. […]
AMP activated protein kinase (AMPK) is a crucial cellular energy sensor protein and is activated when intracellular ATP level decreases to regulate autophagy initiation (Hardie et al., 2012, Nat Rev Mol Cell Bio, Vol. 13 (4) : 251-262). […] The autophagy-related signaling was further evaluated by measuring the MTORC1 mediated phosphorylation […] at Ser757 which disrupts the interaction between ULK1 and AMPK. […] Therefore, the autophagic flux was assessed by measuring the conversion of LC3-I to LC3-II, through lipidation.

Akt (Ser473) = assay: Akt phosphorylation by Western blot in C2C12 myotubes; assay type: cell-based, Mouse; conditions: FuFA-F2 together with insulin; 3-day pretreatment, 2 hours low-glucose, 30 minutes
Method: as §1, §2
Protein levels were assessed by Western blotting. Total proteins were measured using the Bio-Rad protein assay (Hercules, CA, USA) according to the manufacturer's instructions. Total proteins were lysed in RIPA buffer (20mM Tris, 150mM NaCl, 1mM EDTA, 1% NP40, pH 7.5 + complete cocktail protease inhibitors + Pierce phosphatase inhibitors tablet). 40 µg of cell extracts were loaded and blotted onto a nitrocellulose membrane. The membranes were washed, blocked with 5% nonfat milk and incubated in primary antibody overnight at 4°C. […]

C57Bl6 mice = assay: Oral gavage supplementation in C57Bl6 mice: food intake, body weight, body composition (EchoMRI), muscle weight; assay type: in vivo; conditions: 3 and a half weeks
Method: Male C57Bl/6J wild-type mice were obtained from Janvier at 12 weeks of age and were randomly assigned to one of the two groups based on body weight. Mice were housed 2 per cage and maintained on a 12-hour light/dark cycle (lights on at 7:30 pm). Food and water were provided ad libitum. Enrichment (nesting cotton squares) was provided in each cage. Mice were treated once daily by oral gavage with vehicle (50% PEG-400, 0.5% Tween 80, and 49.5% distilled water) or FuFA-F2 (20 mg/kg). All animal experiments were performed according to European directives (86/609/CEE and 2010/63/CEE) and approved by the regional animal experimentation ethics committe: Région Languedoc-Roussillon (No36). Our institutional guidelines for the care and use of laboratory animals were observed. Our animal facility is approved by the Departmental Veterinary Services (No. E34-172-10, 2019/03/04) and the Ministry of Research (DUO No. 7053, 2020/02/26). according to the European Directive 210-63-EU, mice were observed daily for the general health status and mortality scoring.
To investigate in vivo the potential impact a furan-containing compound under the form of a triacylgycerol of FuFA-F2 on muscle characteristics, C57Bl6 mice were supplemented by oral gavage with vehicle or FuFA-F2 (20mg/kg) for 3 and a half weeks (Fig. 6A). […] However, fat mass was similar between the two groups (Fig. 6E).

[2] = 20mg/kg oral gavage once daily, triacylglycerol of FuFA-F2, vs vehicle
[3] = 20mg/kg oral gavage, vs vehicle

`CCCCCc1cc(C)c(CCCCCCCCC(=O)O)o1` [FuFA-F2] was tested, and the “Activation level of AMPK, phosphorylation at Thr172” value [1] was “significantly decreased”, the “insulin-induced phosphorylation of Akt” value (Akt (Ser473)) was “did not alter” and the body weight (C57Bl6 mice; [2]) was “significantly higher”. For the same compound, the food intake (C57Bl6 mice; [2]) was “ate more”, the “weight of the gastrocnemius” value (C57Bl6 mice; [3]) was “significantly increased” and the “weight of the quadriceps” value (C57Bl6 mice; [3]) was “significantly increased”. For the same compound, the fat mass (C57Bl6 mice; EchoMRI, 20mg/kg oral gavage, between the two groups) was “similar” and the lean mass (C57Bl6 mice; EchoMRI, 20mg/kg oral gavage, vs control mice) was “greater”.
